Source: the Bradley open melting point set (2014)
Values joined by “and” are separate entries in the source; they are usually repeats but may differ in a detail not shown here. Identical values can stand only once.

SMILES	melting point
O=C(/C=C/c1ccc(-c2ccccc2)o1)c1ccccc1 [(2E)-1-phenyl-3-(5-phenyl-2-furyl)prop-2-en-1-one]	80 °C
CSC [dimethyl_sulfide]	-98 °C
Clc1cccc(Cl)c1 [1,3-dichlorobenzene]	-25 °C
CC(=O)c1cccc(O)c1 [3-hydroxyacetophenone]	89 °C
Cc1ccc(N)cc1[N+](=O)[O-] [4-methyl-3-nitroaniline]	77 °C
CCCCCCCc1ccc(C(=O)O)cc1 [4-Heptylbenzoic acid]	69.8 °C
CC1(C)C(=O)OOC1=O [4,4-dimethyl-1,2-dioxolane-3,5-dione]	45 °C
Oc1ccnc2ccccc12 [4-hydroxyquinoline]	203 °C
CCCCCCOC(C)=O [N-hexyl acetate]	-80 °C
CC(=O)Oc1ccc([N+](=O)[O-])cc1 [p-nitrophenyl_acetate]	78 °C
CC(N)CCc1ccccc1 (configuration not stated) [3-amino-1-phenylbutane]	-50 °C
O=C(O)C1CCCC1 [cyclopentanecarboxylic acid]	-7 °C
COC(=O)c1c(C)nn(C(=O)OC)c1C [dimethyl 3,5-dimethyl-1H-pyrazole-1,4-dicarboxylate]	90 °C
CCCCCCCCCCc1ccccc1 [decylbenzene]	-14 °C
C/C(=C(/C)c1ccccc1)c1ccccc1 [[(1E)-1-Methyl-2-phenyl-1-propenyl]benzene]	65 °C
CCCCCC=O [hexanal]	-56 °C
CCCCCCS(=O)(=O)CC#N [N-hexylsulfonylacetonitrile]	42 °C
NCCCCN [Butane-1,4-diamine]	27.5 °C
O=C(O)Cc1c(Cl)cccc1Cl [2,6-dichlorophenylacetic acid]	160 °C
CC(=O)c1cccc([N+](=O)[O-])c1 [1-(3-Nitrophenyl)ethanone]	81 °C
CN1CCCC1=O [1-Methylpyrrolidin-2-one]	-23 °C
CC(=O)Nc1cccc(O)c1 [3-acetamidophenol]	148 °C
O=C(O)CSc1ccc(C(F)(F)F)cc1 [[4-(trifluoromethyl)phenylthio]acetic acid]	116 °C
NC(=O)N1c2ccccc2C=Cc2ccccc21 [Carbamazepine]	190 °C
O=C(CCC(=O)Oc1ccccc1)Oc1ccccc1 [diphenyl succinate]	88 °C
CCOCC [diethyl ether]	-116 °C

SMILES	melting point
Cc1ccc(S(=O)(=O)Cl)cc1 [p-toluenesulfonyl_chloride]	69 °C
Cc1ccc(N)c(Br)c1 [2-bromo-4-methylaniline]	15 °C
Cc1cc(Cl)ccc1Cl [2,5-dichlorotoluene]	5 °C
COc1cccc(OC)c1C [2,6-dimethoxytoluene]	40 °C
CC(C)(C)N [2-amino-2-methylpropane]	-68 °C
O=C(O)/C=C/c1cccc2c(Br)ccc([N+](=O)[O-])c12 [(2E)-3-(5-bromo-8-nitronaphthalen-1-yl)prop-2-enoic acid]	142 °C
NCc1ccc2c(Br)cccc2c1 [1-(5-bromonaphthalen-2-yl)methanamine]	112 °C
C=Cc1ccc(N)cc1 [4-aminostyrene]	24 °C
O=C(O)c1ccc([N+](=O)[O-])o1 [5-nitro-2-furoic acid]	187 °C
CN(C)CCC=C1c2ccccc2COc2ccccc21 [Doxepin]	185 °C
Cc1c(N)cccc1N [2,6-diaminotoluene]	105 °C
Cc1ccc(S)c(S)c1 [3,4-toluenedithiol]	30 °C
Brc1ccnc(-c2ccc(Br)nc2)c1 [4,6'-dibromo-2,3'-bipyridine]	129 °C
CCCCCN [1-aminopentane]	-55 °C
Brc1ccccc1-c1ccccc1 [2-bromobiphenyl]	2 °C
Nc1ccccc1C(F)(F)F [2-(trifluoromethyl)aniline]	-30 °C and -29 °C
O=C(CO)[C@H](O)[C@@H](O)[C@H](O)CO [D-sorbose]	164 °C
O=C(O)c1c(Cl)cccc1[N+](=O)[O-] [2-chloro-6-nitrobenzoic acid]	164 °C
OB(O)c1c(F)cc(F)cc1F [2,4,6-trifluorobenzeneboronic acid]	235 °C
O=C(O)c1ccccc1 [benzoic acid]	122 °C
O=C4\C=C2/[C@]([C@H]1CC[C@@]3([C@@H](O)CC[C@H]3[C@@H]1CC2)C)(C)CC4 [testosterone]	155 °C and 154 °C
Cc1ccc(I)cc1 [p-iodotoluene]	43 °C
N#Cc1ccc([N+](=O)[O-])cc1 [p-nitrobenzonitrile]	149 °C
Cc1cc(C)c(CSCc2c(C)cc(C)cc2C)c(C)c1 [1,1'-(sulfanediyldimethanediyl)bis(2,4,6-trimethylbenzene)]	146 °C
CCCCCCCCC(=O)O[C@H]1CC[C@@]2(C)C(=CC[C@H]3[C@@H]4CC[C@H]([C@H](C)CCCC(C)C)[C@@]4(C)CC[C@@H]32)C1 [cholesteryl nonanoate]	77 °C
Cc1cc(Cl)c(Cl)cc1Cl [2,4,5-Trichlorotoluene]	82.4 °C

SMILES	melting point
O=C(O)c1cc(O)ccc1O [gentisic acid]	205 °C
O=C1Cc2ccccc2CO1 [1,4-Dihydro-3H-isochromen-3-on]	83 °C
CC(C)c1ccc(O)cc1 [4-isopropylphenol]	60 °C and 61 °C
COc1ccc(B(O)O)c(OC)c1 [2,4-dimethoxybenzeneboronic acid]	118 °C
O=[N+]([O-])c1ccc(C(F)(F)F)cc1 [4-nitrobenzotrifluoride]	40 °C
O=C(O)CCCCCCCCCCCCCCO [15-hydroxypentadecanoic acid]	86 °C
CC(C)(C)C1=CC(=O)C(=O)C(C(C)(C)C)=C1 [3,5-di-tert-butyl-o-benzoquinone]	115 °C
Clc1cccc(Cl)c1 [1,3-Dichlorobenzene]	-24.8 °C
[O-][n+]1ccccc1S [2-mercaptopyridine n-oxide]	71 °C
Cc1ccc(Cl)cc1 [1-Chloro-4-methylbenzene]	7.5 °C
CC(=O)OCc1ccccc1 [benzyl_acetate]	-51 °C
CC(=O)Nc1ccc(C2=NN(c3ccccc3)C(=O)C2)cc1	210 °C
CC(CCC(=O)O)C1CCC2C3C(O)CC4CC(O)CCC4(C)C3CCC12C (configuration not stated) [ursodiol]	203 °C
CCOC(=O)c1sc2sc(C(=O)OCC)c(C)c2c1C [diethyl 3,4-dimethylthieno[2,3-b]thiophene-2,5-dicarboxylate]	140 °C
CC(=O)N(C1=NC(=O)/C(=C/c2cc(C)n(-c3ccc(C)cc3)c2C)S1)c1ccccc1 [OSM-S-50]	257 °C
O=CC1CCCCC1 [cyclohexanecarboxaldehyde]	35 °C
O=C(O)/C=C/c1cccc(B(O)O)c1 [3-(2-carboxyvinyl)benzeneboronic acid]	218 °C
SCCS [Ethane-1,2-dithiol]	-41 °C
COc1cc(C(=O)O)ccc1O [vanillic acid]	214 °C
[2H]C([2H])([2H])S(=O)C([2H])([2H])[2H] [Bis[(~2~H_3_)methyl] sulfoxide]	18.4 °C
ON=Cc1ccc(Cl)cc1 [4-Chlorobenzaldoxime]	101 °C
ClCCOCCCl [1-Chloro-2-(2-chloroethoxy)ethane]	-47 °C
C=COCC [ethyl vinyl ether]	-115 °C
CCCCCCCCCCCCO [1-dodecanol]	26 °C
NC(=O)C1c2ccccc2Oc2ccccc21 [xanthene-9-carboxamide]	245 °C
Nc1ccc([N+](=O)[O-])cc1Cl [2-chloro-4-nitroaniline]	108 °C

SMILES	melting point
C(=Cc1ccccc1)c1ccccc1 [stilbene]	126 °C
Cn1ccc(=O)n(C)c1=O [1,3-dimethyluracil]	121 °C
COc1cccc(F)c1B(O)O [2-fluoro-6-methoxybenzeneboronic acid]	125 °C
Nc1cc([N+](=O)[O-])ccc1Cl [2-chloro-5-nitroaniline]	119 °C
COc1cc(CNC(=O)CCCC/C=C/C(C)C)ccc1O [(6E)-N-(4-Hydroxy-3-methoxybenzyl)-8-methylnon-6-enamide]	66 °C
Cc1c(Br)cccc1[N+](=O)[O-] [2-bromo-6-nitrotoluene]	40 °C
COc1cccc(/C=C/[N+](=O)[O-])c1OC [2,3-dimethoxy-beta-nitrostyrene]	81 °C
Clc1ccc(C(c2ccccc2Cl)C(Cl)(Cl)Cl)cc1 (configuration not stated) [o,p'-DDT]	75 °C
NC(=O)c1ccccc1 [benzamide]	129 °C and 130 °C
c1ccc2cc3ccccc3cc2c1 [anthracene]	216 °C (4×) and 218 °C
Oc1ccc2ccccc2c1 [2-naphthol]	122 °C
Cc1ccc(O)c2c1CCC2 [7-methyl-4-indanol]	81 °C
CC(C)Br [2-bromopropane]	-89 °C
Oc1cccc(N2CCOCC2)c1 [3-(4-morpholinyl)phenol]	130 °C
CC(=O)CO [hydroxyacetone]	-17 °C
CC(=O)NC1CCCCC(NC(C)=O)CCCC1 (configuration not stated) [N,N'-cyclodecane-1,6-diyldiacetamide]	256 °C
Nc1ncnc2c1ncn2Cc1c(F)cccc1Cl [arprinocid]	245 °C
O=CO [formic acid]	8.3 °C and 8.32 °C
COC(=O)c1c(Cl)c(Cl)c(C(=O)OC)c(Cl)c1Cl [dimethyl tetrachloroterephthalate]	157 °C
C=CCc1ccccc1C(=O)O [2-prop-2-en-1-ylbenzoic acid]	84 °C
COc1nccnc1NS(=O)(=O)c1ccc(N)cc1 [Sulfametopyrazine]	170 °C
Cc1ccccc1OP(=O)(Oc1ccccc1C)Oc1ccccc1C [Tris(2-methylphenyl) phosphate]	-33 °C
C1CCCCCCC1 [cyclooctane]	15 °C
N#Cc1c2ccccc2cc2ccccc12 [anthracene-9-carbonitrile]	177 °C
